Laboratory results as given in US20230131535A1, “ARYLMETHYLENE AROMATIC COMPOUNDS AS Kv1.3 POTASSIUM SHAKER CHANNEL BLOCKERS” (D. E. Shaw Research, LLC, priority 2019, published 2023).
Like-named read-outs stand apart in the source and are kept apart here.

What was measured:
Kv1.3 potassium channel = target: T1, Kv1.3 potassium channel (Homo sapiens, UniProt P22001); assay: Kv1.3 potassium channel blocker activity, automated whole-cell patch clamp (Patchliner); type: cell-based; settings: CHO-K1 cells stably expressing Kv1.3, whole cell current, pulses -90 mV to +40 mV, read-out: Kv1.3_IC50
T1 construct: expressed in transfected cells
Experimental: Example 67. Evaluation of Kv1.3 Potassium Channel Blocker Activities
The assay described below is used to evaluate the disclosed compound's activities as Kv1.3 potassium channel blockers.
CHO-K1 cells stably expressing Kv1.3 were grown in DMEM containing 10% heat-inactivated FBS, 1 mM Sodium Pyruvate, 2 mM L-Glutamine and G418 (500 μg/ml). Cells were grown in culture flasks at 37° C. in a 5% CO2-humidified incubator.
(§1) The cells were bathed in an extracellular solution containing 140 mM NaCl, 4 mM KCl, 2 mM CaCl2), 1 mM MgCl2, 5 mM Glucose, 10 mM HEPES; pH adjusted to 7.4 with NaOH; 295-305 mOsm. The internal solution contained 50 mM KCl, 10 mM NaCl, 60 mM KF, 20 mM EGTA, 10 mM HEPES; pH adjusted to 7.2 with KOH; 285 mOsm. All compounds were dissolved in DMSO at 30 mM. Compound stock solutions were freshly diluted with external solution to concentrations of 30 nM, 100 nM, 300 nM, 1 μM, 3 μM, 10 μM, 30 μM and 100 μM. The highest content of DMSO (0.3%) was present in 100 μM.
The currents were evoked by applying 100 ms depolarizing pulses from −90 mV (holding potential) to +40 mV were applied with 0.1 Hz frequency. Control (compound-free) and compound pulse trains for each compound concentration applied contained 20 pulses. 10 second breaks were used between pulse trains (see Table 4 below).
Whole cell current recordings and compound application were enabled by means of an automated patch clamp platform Patchliner (Nanion Technologies GmbH). EPC 10 patch clamp amplifier (HIEKA Elektronik Dr. Schulze GmbH) along with Patchmaster software (HIEKA Elektronik Dr. Schulze GmbH) was used for data acquisition. Data were sampled at 10 kHz without filtering. Passive leak currents were subtracted online using a P/4 procedure (HEKA Elektronik Dr. Schulze GmbH). Increasing compound concentrations were applied consecutively to the same cell without washouts in between. Total compound incubation time before the next pulse train was not longer than 10 seconds. Peak current inhibition was observed during compound equilibration.
(§2) AUC and peak values were obtained with Patchmaster (HEKA Elektronik Dr. Schulze GmbH). To determine IC50, the last single pulse in the pulse train corresponding to a given compound concentration was used. Obtained AUC and peak values in the presence of compound were normalized to control values in the absence of compound. Using Origin (OridinLab), IC50 was derived from data fit to Hill equation: Icompound/Icontrol=(100−A)/(1+([compound]/IC50)nH)+A, where IC50 value is the concentration at which current inhibition is half-maximal, [compound] is the applied compound concentration, A is the fraction of current that is not blocked and nH is the Hill coefficient.

hERG channel = target: T2, hERG channel (Homo sapiens, UniProt Q12809); assay: hERG electrophysiology, automated whole-cell patch clamp (Patchliner); type: cell-based; settings: CHO-K1 cells stably expressing hERG, whole cell current, tail current protocol, read-out: hERG_IC50
T2 construct: expressed in transfected cells
Experimental: Example 68. Evaluation of hERG Activities
This assay is used to evaluate the disclosed compounds' inhibition activities against the hERG channel.
CHO-K1 cells stably expressing hERG were grown in Ham's F-12 Medium with Glutamine containing 10% heat-inactivated FBS, 1% Penicillin/Streptomycin, Hygromycin (100 μg/ml) and G418 (100 μg/ml). Cells were grown in culture flasks at 37° C. in a 5% CO2-humidified incubator.
as §1
The voltage protocol (see Table 5) was designed to simulate voltage changes during a cardiac action potential with a 300 ms depolarization to +20 mV (analogous to the plateau phase of the cardiac action potential), a repolarization for 300 ms to −50 mV (inducing a tail current) and a final step to the holding potential of −80 mV. The pulse frequency was 0.3 Hz. Control (compound-free) and compound pulse trains for each compound concentration applied contained 70 pulses.
Whole cell current recordings and compound application were enabled by means of an automated patch clamp platform Patchliner (Nanion). EPC 10 patch clamp amplifier (HEKA) along with Patchmaster software (HEKA Elektronik Dr. Schulze GmbH) was used for data acquisition. Data were sampled at 10 kHz without filtering. Increasing compound concentrations were applied consecutively to the same cell without washouts in between.
as §2, with “PEAK” for “peak”, “IC50” for “IC50,”, “IC50” for “IC50 value”

T1 sequence (P22001 whole entry): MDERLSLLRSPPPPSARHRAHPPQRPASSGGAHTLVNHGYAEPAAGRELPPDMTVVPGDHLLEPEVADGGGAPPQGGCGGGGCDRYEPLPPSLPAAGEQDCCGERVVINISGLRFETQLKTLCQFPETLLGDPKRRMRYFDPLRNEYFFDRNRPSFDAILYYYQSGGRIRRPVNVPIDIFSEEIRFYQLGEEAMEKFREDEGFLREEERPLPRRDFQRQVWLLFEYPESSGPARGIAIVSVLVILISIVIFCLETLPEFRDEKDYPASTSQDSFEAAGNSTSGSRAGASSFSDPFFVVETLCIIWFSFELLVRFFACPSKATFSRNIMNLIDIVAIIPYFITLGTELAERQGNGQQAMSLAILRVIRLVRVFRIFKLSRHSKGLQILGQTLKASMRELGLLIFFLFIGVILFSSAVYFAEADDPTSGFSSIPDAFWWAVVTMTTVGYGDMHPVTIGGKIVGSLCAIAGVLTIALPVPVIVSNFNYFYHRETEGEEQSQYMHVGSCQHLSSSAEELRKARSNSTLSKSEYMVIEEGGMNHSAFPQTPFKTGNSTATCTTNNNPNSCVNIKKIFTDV
T2 sequence (Q12809 whole entry): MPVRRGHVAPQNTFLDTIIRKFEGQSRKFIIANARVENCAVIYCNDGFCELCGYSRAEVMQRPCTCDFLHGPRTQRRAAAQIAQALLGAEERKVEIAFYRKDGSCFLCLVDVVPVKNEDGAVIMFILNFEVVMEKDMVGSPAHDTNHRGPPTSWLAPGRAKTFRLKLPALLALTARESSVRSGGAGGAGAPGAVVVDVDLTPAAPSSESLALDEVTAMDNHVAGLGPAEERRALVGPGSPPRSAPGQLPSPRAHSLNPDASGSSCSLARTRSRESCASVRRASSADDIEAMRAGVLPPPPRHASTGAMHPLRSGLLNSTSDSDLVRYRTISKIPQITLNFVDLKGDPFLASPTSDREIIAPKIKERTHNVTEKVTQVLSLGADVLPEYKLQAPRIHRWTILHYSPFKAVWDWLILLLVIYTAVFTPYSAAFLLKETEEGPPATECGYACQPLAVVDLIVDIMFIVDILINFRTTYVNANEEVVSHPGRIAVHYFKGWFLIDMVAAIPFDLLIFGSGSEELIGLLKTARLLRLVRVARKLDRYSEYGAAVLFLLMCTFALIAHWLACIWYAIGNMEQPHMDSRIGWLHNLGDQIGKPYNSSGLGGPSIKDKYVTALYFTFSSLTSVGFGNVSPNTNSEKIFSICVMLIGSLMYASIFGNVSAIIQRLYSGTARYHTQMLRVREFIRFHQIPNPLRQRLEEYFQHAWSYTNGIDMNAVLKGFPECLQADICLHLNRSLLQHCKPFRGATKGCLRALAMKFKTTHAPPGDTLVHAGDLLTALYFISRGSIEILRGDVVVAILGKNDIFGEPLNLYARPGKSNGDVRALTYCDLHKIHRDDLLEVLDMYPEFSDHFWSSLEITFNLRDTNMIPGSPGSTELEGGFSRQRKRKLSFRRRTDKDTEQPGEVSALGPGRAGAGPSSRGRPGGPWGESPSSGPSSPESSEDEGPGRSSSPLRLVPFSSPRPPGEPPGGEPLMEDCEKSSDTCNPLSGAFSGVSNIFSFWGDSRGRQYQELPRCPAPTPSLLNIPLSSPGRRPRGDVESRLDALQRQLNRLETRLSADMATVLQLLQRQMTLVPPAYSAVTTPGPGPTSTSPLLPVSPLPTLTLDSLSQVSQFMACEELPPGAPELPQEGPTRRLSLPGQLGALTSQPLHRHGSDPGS

Row | Compound | IC50 (Kv1.3 potassium channel; Table 6) | IC50 (Kv1.3 potassium channel; Table 7) | IC50 (hERG channel; Table 6) | IC50 (hERG channel; Table 7)
1 | NCc1cc(C(O)c2c(O)ccc(Cl)c2Cl)ccn1 (single isomer, unassigned) [Compound 53, 2-((2-(aminomethyl)pyridin-4-yl)(hydroxy)methyl)-3,4-dichlorophenol] | < 1 µM |  | > 30 µM | 
2 | Nc1cc(Cc2cc(Cl)c(Cl)cc2O)ccn1 [Compound 2, 2-[(2-aminopyridin-4-yl)methyl]-4,5-dichlorophenol] | < 10 µM |  | < 30 µM | 
3 | NC(c1ccncc1)c1cc(Cl)c(Cl)cc1O (stereo not shown) [Compound 6, 2-[amino(pyridin-4-yl)methyl]-4,5-dichlorophenol] | < 10 µM |  | > 30 µM | 
4 | Nc1ccc(Cc2cc(Cl)c(Cl)cc2O)cn1 [Compound 8, 2-[(6-aminopyridin-3-yl)methyl]-4,5-dichlorophenol] | < 10 µM |  | < 30 µM | 
5 | Cc1cnccc1C(NC(=O)C1CNC1)c1c(O)ccc(Cl)c1Cl (stereo not shown) [Compound 9, N-[(2,3-dichloro-6-hydroxyphenyl)(3-methylpyridin-4-yl)methyl]azetidine-3-carboxamide] | < 1 µM |  | > 30 µM | 
6 | NC(c1ccncc1)c1c(O)ccc(Cl)c1Cl (stereo not shown) [Compound 11, 2-[amino(pyridin-4-yl)methyl]-3,4-dichlorophenol] | < 10 µM |  | > 30 µM | 
7 | NC(c1ccncc1)c1c(O)ccc2ccccc12 (stereo not shown) [Compound 17, 1-[amino(pyridin-4-yl)methyl]naphthalen-2-ol] | < 10 µM |  | < 30 µM | 
8 | CC(=O)NC(c1ccncc1)c1c(O)ccc(Cl)c1Cl (stereo not shown) [Compound 20, N-[(2,3-dichloro-6-hydroxyphenyl)(pyridin-4-yl)methyl]acetamide] | < 1 µM |  | > 30 µM | 
9 | O=C(NC(c1ccncc1)c1cc(Cl)c(Cl)cc1O)C1CNC1 (stereo not shown) [Compound 26, N-[(4,5-dichloro-2-hydroxyphenyl)(pyridin-4-yl)methyl]azetidine-3-carboxamide] | < 1 µM |  | > 30 µM | 
10 | NCc1cc(C(O)c2c(O)ccc(Cl)c2Cl)ccn1 (stereo not shown) [Compound 28, 2-[[2-(aminomethyl)pyridin-4-yl](hydroxy)methyl]-3,4-dichlorophenol] | < 1 µM |  | > 30 µM | 
11 | Oc1ccc(Cl)c(Cl)c1C(O)c1ccncc1 (stereo not shown) [Compound 29, 3,4-dichloro-2-[hydroxy(pyridin-4-yl)methyl]phenol] | < 1 µM |  | > 30 µM | 
12 | Nc1cc(C(O)c2c(O)ccc(Cl)c2Cl)ccn1 (stereo not shown) [Compound 36, 2-[(2-aminopyridin-4-yl)(hydroxy)methyl]-3,4-dichlorophenol] | < 1 µM |  | > 30 µM | 
13 | Nc1ccc(C(O)c2c(O)ccc(Cl)c2Cl)cn1 (stereo not shown) [Compound 40, 2-[(6-aminopyridin-3-yl)(hydroxy)methyl]-3,4-dichlorophenol] | < 1 µM |  | < 30 µM | 
14 | NC(=O)c1ccc(C(O)c2c(O)ccc(Cl)c2Cl)cc1 (stereo not shown) [Compound 64, 4-[(2,3-dichloro-6-hydroxyphenyl)(hydroxy)methyl]benzamide] | < 1 µM |  | > 30 µM | 
15 | CN1CC(C(=O)NC(c2ccncc2)c2c(O)ccc(Cl)c2Cl)C1 (stereo not shown) [Compound 73, N-[(2,3-dichloro-6-hydroxyphenyl)(pyridin-4-yl)methyl]-1-methylazetidine-3-carboxamide] | < 1 µM |  | > 30 µM | 
16 | C[C@H](NC(=O)C1CNC1)c1c(O)ccc(Cl)c1Cl [Compound 76, N-[(1S)-1-(2,3-dichloro-6-hydroxyphenyl)ethyl]azetidine-3-carboxamide] |  | < 1 µM |  | > 30 µM
17 | C[C@@H](NC(=O)[C@H]1CCCNC1)c1c(O)ccc(Cl)c1Cl [Compound 78, (3S)-N-[(1R)-1-(2,3-dichloro-6-hydroxyphenyl)ethyl]piperidine-3-carboxamide] |  | < 1 µM |  | > 30 µM
18 | C[C@H](NC(=O)C1CN(CCO)C1)c1c(O)ccc(Cl)c1Cl [Compound 89, N-[(1S)1-(2,3-dichloro-6-hydroxyphenyl)ethyl]-1-(2-hydroxyethyl) azetidine-3-carboxamide] |  | < 1 µM |  | > 30 µM
19 | Cc1cc(O)c([C@H](N)CNC(=O)C2CNC2)cc1Cl [Compound 94, N-[(2S)-2-amino-2-(5-chloro-2-hydroxy-4-methylphenyl)ethyl]azetidine-3-carboxamide] |  | < 1 µM |  | > 30 µM
20 | C[C@H](NC(=O)C1CNC1)c1c(O)ccc(Cl)c1Br [Compound 98, N-[(1S)-1-(2-bromo-3-chloro-6-hydroxyphenyl)ethyl]azetidine-3-carboxamide] |  | < 1 µM |  | > 30 µM

Further lines, with some results ahead:

Row | IC50 (Kv1.3 potassium channel; Table 6) | IC50 (Kv1.3 potassium channel; Table 7) | Compound | IC50 (hERG channel; Table 6) | IC50 (hERG channel; Table 7)
21 | < 1 µM |  | O=C(N[C@H](c1ccncc1)c1c(O)ccc(Cl)c1Cl)[C@@H]1CCCN1 (single isomer, unassigned) [Compound 68] | < 30 µM | 
22 |  | < 1 µM | CC(NC(=O)C1CNC1)c1c(O)ccc(Br)c1Cl (stereo in doubt) [Compound 91, N-[(1R)-1-3-bromo-2-chloro-6-hydroxyphenyl) ethyl]azetidine-3-carboxamide] |  | > 30 µM
23 | < 10 µM |  | Oc1cc(Cl)c(Cl)cc1Cc1ccncc1 [Compound 1, 2-[(pyridin-4-yl)methyl]-4,5-dichlorophenol] | > 30 µM | 
24 | < 10 µM |  | CC(=O)CC(c1ccncc1)c1c(O)ccc2ccccc12 (stereo not shown) [Compound 18] | > 30 µM | 
25 | < 1 µM |  | NC(c1ccc2c(c1)CNC2)c1cc(Cl)c(Cl)cc1O (stereo not shown) [Compound 21, 2-[amino(2,3-dihydro-1H-isoindol-5-yl)methyl]-4,5-dichlorophenol] | < 30 µM | 
26 | < 10 µM |  | Oc1cc(Cl)c(Cl)cc1C(O)c1ccncc1 (stereo not shown) [Compound 27, 4,5-dichloro-2-[hydroxy(pyridin-4-yl)methyl]phenol] | > 30 µM | 
27 | < 1 µM |  | Oc1ccc(Cl)c(Cl)c1C(O)c1cccnc1 (stereo not shown) [Compound 31, 3,4-dichloro-2-[hydroxy(pyridin-3-yl)methyl]phenol] | > 30 µM | 
28 | < 1 µM |  | Cc1cnccc1C(O)c1c(O)ccc(Cl)c1Cl (stereo not shown) [Compound 39, 3,4-dichloro-2-[hydroxy(3-methylpyridin-4-yl)methyl]phenol] | > 30 µM | 
29 | < 1 µM |  | O=C(NC(c1ccncc1)c1c(O)ccc(Cl)c1Cl)C1CNC1 (stereo not shown) [Compound 42, N-[(2,3-dichloro-6-hydroxyphenyl)(pyridin-4-yl)methyl]azetidine-3-carboxamide] | > 30 µM | 
